The text below walks through data of patent US4822804A, “5,6,7,-trinor-4,8-inter-m-phenylene 2-nor PGI2 derivatives and anti-ulcer, anti-thrombotic and anti-hypertensive pharmaceutical compositions containing them” (Toray Industries, Inc., priority 1981, dated 1989).

One data set relates to gastric juice secretion. In words: Gastric juice secretion inhibition (Shay's method), subcutaneous. Format: in vivo.
The subject of a further data set is Human Platelet. In words: Human platelet aggregation inhibiting activity (aggregating agent ADP). It counts as cell-based. The following applies: human platelet rich plasma, read-out: ID50, human platelet aggregation inhibiting activity. As for the experimental part:
Blood was collected from healthy volunteers using a disposable syringe containing 3.8% sodium citrate from the saphnous vein. The blood was centrifuged for 10 minutes at 160×g. The resultant supernatant liquid was used as platelet rich plasma (PRP). Aggregation was induced by […] ADP (Adenosine diphosphate). The inhibition rate was calculated against a control aggregation of 100%.
ED50 (effective dose 50) is defined as the dosage required to produce a response in 50% of the subjects to whom the compound is given.

The next data set concerns gastric mucous membrane. Briefly: Protection against gastric mucous membrane lesion due to alcohol (Robert's method). Format: in vivo. The following applies: rat, oral. As for the experimental part:
Gastric cytoprotection was measured according to the method of Robert et al (Gastroenterol 77, 433-443, 1979). The rats fasted overnight and were given a necrotizing agent (0.2N NaOH 1 ml/rat (Method A) or Absolute EtOH (Method B)) and killed one hour later for the examination of gastric lesions. The test drug was administered 30 minutes before the necrotizing agent. The length of the lesion was measured and expressed in terms of the ulcer index. The effect of the drug was expressed in terms of the inhibition rate against the ulcer index of a control animal.

A further data set concerns platelet rich plasma. Briefly: Anti-aggregatory effect in platelet rich plasma (Born's method; arachidonic acid, ADP and collagen). It counts as cell-based. The conditions noted are these: PRP of man or rabbit, ADP, collagen.
Data set [1] can be described thus: Arterial blood pressure of anesthetized rats, intravenous injection. It counts as in vivo. The following applies: rat, i.v., pentobarbital anesthesia. As for the experimental part:
Under pentobarbital anesthesia (50 mg/kg s.c.), a catheter was inserted into the carotid artery. The blood pressure was measured via a pressure transducer on a polygraph.

The nature of data set [2]: Diarrhoea inducing action, subcutaneous. It counts as in vivo. The conditions noted are these: up to the dose of 3 mg/kg, rat.
The conditions of data set [3]: neutral aqueous solution; cited from earlier work.
For data set [4] the following is noted: as recognized in prostaglandin E1 and E2; cited from earlier work.

In brackets after ≈: the same amount, converted by molar mass.

Take “5,6,7-trinor-4,9-inter-m-phenylene-17,18,19,20-tetranor-16-m-chlorophenoxy PGI2 [Compound 65]”: in the data set with gastric juice secretion, the “effective dose in inhibiting gastric juice secretion” value was in the range of 0.3 to 1 mg/kg and the “effective dose relative to the dose of prostaglandin E2, gastric juice secretion inhibition” value was 0.1-0.3 times.

For the compound `CCCOC[C@H](O)/C=C/[C@@H]1[C@H]2c3cccc(CCC(=O)O)c3O[C@H]2C[C@H]1O` (relative stereo) [5,6,7-trinor-4,8-inter-m-phenylene-2,17,18,19,20-pentanor-16-propoxy PGI2], the IC50 in the data set on Human Platelet worked out at 0.048 µg/mL (≈ 0.128 µM).

Regarding `O=C(O)CCCc1cccc2c1O[C@H]1C[C@@H](O)[C@H](/C=C/[C@@H](O)COc3ccccc3)[C@@H]21` (relative stereo) [Compound 60, 5,6,7-trinor-4,8-inter-m-phenylene-17,18,19,20-tetranor-16-phenoxy PGI2], the “effective dose relative to the dose of prostaglandin E2, gastric juice secretion inhibition” value with gastric juice secretion was 0.1-0.3 times.

With `CCCOC[C@H](O)/C=C/[C@@H]1[C@H]2c3cccc(CCCC(=O)O)c3O[C@H]2C[C@H]1O` (relative stereo) [Compound 66, 5,6,7-trinor-4,8-inter-m-phenylene-17,18,19,20-tertranor-16-propoxy PGI.su b.2], the IC50 with Human Platelet was determined as 0.49 µg/mL (≈ 1.25 µM).

As to `CCOCC(C)(C)[C@H](O)/C=C/[C@@H]1[C@H]2c3cccc(CCCC(=O)O)c3O[C@H]2C[C@H]1O` (relative stereo) [Compound 76, 5,6,7-trinor-4,8-inter-m-phenylene-16,16-dimethyl-18,19,20-trinor-17-ethoxyPGI2], the “gastric mucous membrane protecting activity relative to prostaglandin E2” value in the data set with gastric mucous membrane is given as 0.3-1 times. The “effective dose relative to the dose of prostaglandin E2, gastric juice secretion inhibition” value with gastric juice secretion is reported as 0.1-0.3 times.

On to `O=C(O)/C=C/Cc1cccc2c1O[C@H]1C[C@@H](O)[C@H](/C=C/[C@@H](O)c3ccccc3)[C@@H]21` (relative stereo) [Compound 97, 5,6,7-trinor-4,8-inter-m-phenylene-2,3-dehydro-16,17,18,19,20-pentanor-15-phenyl-PGI2], for which the “anti-aggregatory effect compared with prostaglandin E1” value in the data set with platelet rich plasma was “comparable or stronger anti-aggregatory effect”. Besides, in data set [1], the “blood pressure reducing activity relative to prostaglandin E1” value is reported as 1-2 times and the “duration of blood pressure reducing activity compared with prostaglandin E1” value is “more prolonged duration”. For the same compound, the “gastric mucous membrane protecting activity relative to prostaglandin E2” value in the data set with gastric mucous membrane is on record as 0.3-1 times. In the data set with gastric juice secretion, the “effective dose relative to the dose of prostaglandin E2, gastric juice secretion inhibition” value is listed as 0.1-0.3 times. Also, the diarrhoea inducing action entry in data set [2] is recorded as “do not exhibit the diarrhoea inducing actions”.

With `CCCCC(C)[C@H](O)/C=C/[C@@H]1[C@H]2c3cccc(CCC(=O)O)c3O[C@H]2C[C@H]1O` (stereo partly drawn) [5,6,7-trinor-4,8-inter-m-phenylene-2-nor-16-methyl PGI2], the IC50 with Human Platelet was 0.011 µg/mL (≈ 0.0283 µM).

As for `CCC[C@H](C)C[C@H](O)/C=C/[C@@H]1[C@H]2c3cccc(CCC(=O)O)c3O[C@H]2C[C@H]1O` [5,6,7-trinor-4,8-inter-m-phenylene-2-nor-17(S)-methyl PGI2], the IC50 in the data set with Human Platelet amounted to 0.0006 µg/mL (≈ 0.00154 µM).

Consider `CCCCC(C)[C@H](O)/C=C/[C@@H]1[C@H]2c3cccc(CCCC(=O)O)c3O[C@H]2C[C@H]1O` (stereo partly drawn) [5,6,7-trinor-4,8-inter-m-phenylene-16-methyl PGI2], for which the IC50 in the data set with Human Platelet is 0.031 µg/mL (≈ 0.077 µM).

On to `CCC[C@H](C)C[C@H](O)/C=C/[C@@H]1[C@H]2c3cccc(CCCC(=O)O)c3O[C@H]2C[C@H]1O` [5,6,7-trinor-4,8-inter-m-phenylene-17(S)-methyl PGI2], for which the IC50 in the data set with Human Platelet was 0.005 µg/mL (≈ 0.0124 µM).

On to `CCCCCCC(O)C#CC1C(O)CC2Oc3c(CCCC(=O)O)cccc3C21` (stereo not drawn) [Compound 6, 5,6,7,-trinor-4,8-inter-m-phenylene-13,14-didehydro-20-methyl-PGI2], for which, in the data set on platelet rich plasma, the “anti-aggregatory effect compared with prostaglandin E1” value is listed as “comparable or stronger anti-aggregatory effect”. In data set [1], the “blood pressure reducing activity relative to prostaglandin E1” value is 1-2 times and the “duration of blood pressure reducing activity compared with prostaglandin E1” value is reported as “more prolonged duration”. In addition, the diarrhoea inducing action result in data set [2] is “do not exhibit the diarrhoea inducing actions”.

For the compound `O=C(O)CCCc1cccc2c1OC1CC(O)C(C#CC(O)C3CCCCC3)C21` (stereo not drawn) [Compound 9, 5,6,7,-trinor-4,8-inter-m-phenylene-13,14-didehydro-15-cyclohexyl-16,17,18,19,20-pentanor PGI2], the “anti-aggregatory effect compared with prostaglandin E1” value in the data set on platelet rich plasma was “comparable or stronger anti-aggregatory effect”. In data set [1], the “blood pressure reducing activity relative to prostaglandin E1” value is 1-2 times and the “duration of blood pressure reducing activity compared with prostaglandin E1” value is listed as “more prolonged duration”. Further, in data set [2], the diarrhoea inducing action entry is listed as “do not exhibit the diarrhoea inducing actions”.

For the compound `COC(=O)CCCc1cccc2c1O[C@H]1C[C@@H](O)[C@H](C#CC(O)c3ccccc3)[C@@H]21` (stereo partly drawn) [Compound 19, 5,6,7-trinor-4,8-inter-m-phenylene-13,14-didehydro-15-phenyl-16,17,18,19,20-pentanor PGI2 methyl ester], the “anti-aggregatory effect compared with prostaglandin E1” value in the data set with platelet rich plasma is “comparable or stronger anti-aggregatory effect”. For the same compound, in data set [1], the “blood pressure reducing activity relative to prostaglandin E1” value is 1-2 times and the “duration of blood pressure reducing activity compared with prostaglandin E1” value is on record as “more prolonged duration”. Further, the “gastric mucous membrane protecting activity relative to prostaglandin E2” value with gastric mucous membrane is 0.3-1 times. In addition, the “effective dose relative to the dose of prostaglandin E2, gastric juice secretion inhibition” value with gastric juice secretion is 0.1-0.3 times. The diarrhoea inducing action entry in data set [2] is reported as “do not exhibit the diarrhoea inducing actions”.

As for `CCCC(C)C[C@H](O)/C=C/[C@@H]1[C@H]2c3cccc(CCCC(=O)O)c3O[C@H]2C[C@H]1O` (stereo partly drawn) [Compound 48, 5,6,7-trinor-4,8-inter-m-phenylene-17-α-methyl PGI2], the “anti-aggregatory effect compared with prostaglandin E1” value with platelet rich plasma is “comparable or stronger anti-aggregatory effect”. Further, in data set [1], the “blood pressure reducing activity relative to prostaglandin E1” value is recorded as 1-2 times and the “duration of blood pressure reducing activity compared with prostaglandin E1” value is “more prolonged duration”. In data set [2], the diarrhoea inducing action entry is on record as “do not exhibit the diarrhoea inducing actions”.

As to `CCCC(C)CC(O)C=CC1C(O)CC2Oc3c(CCCC(=O)O)cccc3C21` (stereo not drawn) [Compound 49, 5,6,7-trinor-4,8-inter-m-phenylene-17-β-methyl PGI2], the “anti-aggregatory effect compared with prostaglandin E1” value in the data set on platelet rich plasma is “comparable or stronger anti-aggregatory effect”. For the same compound, in data set [1], the “blood pressure reducing activity relative to prostaglandin E1” value is recorded as 1-2 times and the “duration of blood pressure reducing activity compared with prostaglandin E1” value is listed as “more prolonged duration”. Also, the diarrhoea inducing action result in data set [2] is reported as “do not exhibit the diarrhoea inducing actions”.

`CCCCC(C)C[C@H](O)/C=C/[C@@H]1[C@H]2c3cccc(CCCC(=O)O)c3O[C@H]2C[C@H]1O` (stereo partly drawn) [Compound 55, 5,6,7-trinor-4,8-inter-m-phenylene-17-α-methyl-20-homo PGI2]: the “anti-aggregatory effect compared with prostaglandin E1” value with platelet rich plasma is reported as “comparable or stronger anti-aggregatory effect”. For the same compound, in data set [1], the “blood pressure reducing activity relative to prostaglandin E1” value is on record as 1-2 times and the “duration of blood pressure reducing activity compared with prostaglandin E1” value is listed as “more prolonged duration”. For the same compound, the diarrhoea inducing action entry in data set [2] is “do not exhibit the diarrhoea inducing actions”.

For `CCCCC[C@H](O)/C=C/[C@@H]1[C@H]2C/C(=C/CCCC(=O)O)O[C@H]2C[C@H]1O` [PGI2, Prostaglandin I2], the “stability in aqueous solution” value in data set [3] is given as “very unstable even in a neutral aqueous solution”.

With `CCCCC[C@H](O)/C=C/[C@H]1[C@H](O)CC(=O)[C@@H]1C/C=C\CCCC(=O)O` [prostaglandin E2], the “diarrhoea inducing action of reference prostaglandins” value in data set [4] was “diarrhoea inducing actions recognized”.
